Here are results for four molecules from article PMC3069040, “A Conserved Cysteine Motif Is Critical for Rice Ceramide Kinase Activity and Function” (PLoS ONE, 2011).

Data set [1] has as its target T1, OsCERK (Oryza sativa, UniProt C0LT23).
T1 construct: gene CERK; N-terminus from primer MEGGGEAL
T1 sequence (C0LT23 1-607): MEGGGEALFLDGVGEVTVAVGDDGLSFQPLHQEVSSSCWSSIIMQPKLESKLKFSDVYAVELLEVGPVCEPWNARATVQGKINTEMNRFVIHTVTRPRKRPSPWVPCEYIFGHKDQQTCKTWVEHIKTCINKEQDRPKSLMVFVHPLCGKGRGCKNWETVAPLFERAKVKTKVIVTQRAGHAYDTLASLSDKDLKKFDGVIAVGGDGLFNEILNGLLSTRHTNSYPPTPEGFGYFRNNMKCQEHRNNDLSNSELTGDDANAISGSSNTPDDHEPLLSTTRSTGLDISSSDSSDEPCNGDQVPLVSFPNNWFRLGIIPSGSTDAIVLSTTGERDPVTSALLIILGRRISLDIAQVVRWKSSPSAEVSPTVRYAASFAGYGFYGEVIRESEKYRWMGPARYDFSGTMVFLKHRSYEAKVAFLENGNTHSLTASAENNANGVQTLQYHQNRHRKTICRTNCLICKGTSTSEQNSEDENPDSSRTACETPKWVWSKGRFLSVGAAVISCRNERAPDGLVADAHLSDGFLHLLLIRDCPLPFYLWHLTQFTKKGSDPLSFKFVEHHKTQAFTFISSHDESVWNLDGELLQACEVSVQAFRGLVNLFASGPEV
Kind of data set: TLC with NBD fluorescence scan, inhibition of C6-NBD-ceramide phosphorylation. It is filed as biochemical.

In data set [2] the target is T2, rACD5 (Arabidopsis thaliana, UniProt Q6USK2).
T2 construct: gene CERK; coding region in pET28b, His-tagged, E. coli BL21 (DE3), Ni-NTA; N-terminus from primer MEEGRDDE
T2 sequence (Q6USK2 1-608): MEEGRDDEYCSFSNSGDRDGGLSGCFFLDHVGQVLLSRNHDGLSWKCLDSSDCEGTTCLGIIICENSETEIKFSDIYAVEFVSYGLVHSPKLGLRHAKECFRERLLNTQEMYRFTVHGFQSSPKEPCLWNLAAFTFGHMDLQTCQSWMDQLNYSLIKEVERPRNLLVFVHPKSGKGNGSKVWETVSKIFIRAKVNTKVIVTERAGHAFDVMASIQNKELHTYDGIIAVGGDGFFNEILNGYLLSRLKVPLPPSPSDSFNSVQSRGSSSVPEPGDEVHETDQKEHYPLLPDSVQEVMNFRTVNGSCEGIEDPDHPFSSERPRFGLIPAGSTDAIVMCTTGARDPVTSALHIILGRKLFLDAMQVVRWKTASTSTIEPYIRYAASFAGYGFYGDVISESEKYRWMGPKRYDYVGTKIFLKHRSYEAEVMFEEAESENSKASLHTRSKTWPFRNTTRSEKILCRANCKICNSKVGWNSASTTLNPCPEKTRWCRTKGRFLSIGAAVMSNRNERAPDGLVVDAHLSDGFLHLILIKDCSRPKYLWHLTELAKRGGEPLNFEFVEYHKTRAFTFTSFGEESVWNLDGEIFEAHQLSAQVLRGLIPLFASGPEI
Kind of data set: TLC with NBD fluorescence scan, turnover. It is filed as biochemical. The note with it: ATP 1 mM, 15 mM MgCl2, mixed micelles, 40 °C, 30 min; labelled compound.

Substrate in data set [3]: CCCCCCCCCCCCC/C=C/[C@@H](O)[C@H](CO)NC(=O)CCCCCNc1ccc([N+](=O)[O-])c2nonc12
Nature of the data set: TLC with NBD fluorescence scan, Lineweaver-Burk. The note with it: ATP 1 mM, 15 mM MgCl2, Triton X-100/cardiolipin mixed micelles, Hepes pH 7.4, 40 °C, labelled compound. It is filed as biochemical, Oryza sativa.

Substrate in data set [4]: Nc1ncnc2c1ncn2[C@@H]1O[C@H](COP(=O)(O)OP(=O)(O)OP(=O)(O)O)[C@@H](O)[C@H]1O
Nature of the data set: TLC with NBD fluorescence scan, Lineweaver-Burk. It is filed as biochemical, Oryza sativa. Conditions: co-substrate C6-NBD-ceramide, 15 mM MgCl2, mixed micelles, Hepes pH 7.4, 40 °C, Discussion b40 prints 36.35 µM.

In data set [1], `CCCCCCCCCCCCC/C=C/[C@@H](O)[C@H](CO)N(C)C` [N,N-dimethylsphingosine] returned an inhibition at 100 µM of roughly 70%.

Take `O=C(Nc1nc2ccc(NC(=O)C34CC5CC(CC(C5)C3)C4)cc2s1)c1ccccc1` [ceramide kinase inhibitor K1]: the “% inhibition at 200 μM” value in data set [1] (C6-NBD-ceramide, ATP, 15 mM MgCl2, mixed micelles, 40 °C, 0.5% ethanol or methanol as solvent) is given as greater than 90%. For the molecule `CCCCCCCCCCCCC/C=C/[C@@H](O)[C@H](CO)NC(=O)CCCCCNc1ccc([N+](=O)[O-])c2nonc12` [D-erythro-C6-NBD-ceramide], in data set [2], the “TLC with NBD fluorescence scan, turnover” value is “phosphorylating C6-NBD-ceramide to give C6-NBD-ceramide-1-phosphate, as did recombinant OsCERK and rACD5”.

B1: OsCERK (Oryza sativa Japonica Group) (protein)
chain: T1 sequence (C0LT23 1-607)
notes: N-terminus from primer MEGGGEAL
B1: the figures for the Km in data set [3] and in data set [4] were 4.1 µM and 35.36 µM, respectively.
